From the supplement of paper PMC8967900

Assays:
Assay in all cases: selective drug sensitivity score (sDSS, relative to normal bone marrow) (sDSS (score)); higher = more potent and effective on the cell line relative to normal bone marrow cells
Conditions in all cases: 72 h
TANOUE = test system: TANOUE
MOLT-4 = test system: MOLT-4
P30-OHKUBO = test system: P30-OHKUBO
COG-LL-394h = test system: COG-LL-394h
DND-41 = test system: DND-41
COG-LL-355h = test system: COG-LL-355h
MHH-CALL-3 = test system: MHH-CALL-3
SUP-B15 = test system: SUP-B15
CCRF-HSB2 = test system: CCRF-HSB2
TMD5 = test system: TMD5
REH = test system: REH
PEER = test system: PEER
KASUMI-9 = test system: KASUMI-9
NALM-16 = test system: NALM-16
SEM cells = test system: SEM cells
RPMI-8402 = test system: RPMI-8402
COG-LL-402h = test system: COG-LL-402h
RCH-ACV = test system: RCH-ACV
MOLT-16 = test system: MOLT-16
ALL-PO = test system: ALL-PO
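Note: ALL cell lines in 384-well plates, five doses spanning 10,000-fold, each plate scaled between vehicle and 100 µmol/L benzalkonium chloride controls, sDSS an adapted area-under-curve metric.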

Structure (SMILES)	selective drug sensitivity score (TANOUE)	selective drug sensitivity score (MOLT-4)	selective drug sensitivity score (P30-OHKUBO)	selective drug sensitivity score (COG-LL-394h)	selective drug sensitivity score (DND-41)	selective drug sensitivity score (COG-LL-355h)	selective drug sensitivity score (MHH-CALL-3)	selective drug sensitivity score (SUP-B15)	selective drug sensitivity score (CCRF-HSB2)	selective drug sensitivity score (TMD5)	selective drug sensitivity score (REH)	selective drug sensitivity score (PEER)	selective drug sensitivity score (KASUMI-9)	selective drug sensitivity score (NALM-16)	selective drug sensitivity score (SEM cells)	selective drug sensitivity score (RPMI-8402)	selective drug sensitivity score (COG-LL-402h)	selective drug sensitivity score (RCH-ACV)	selective drug sensitivity score (MOLT-16)	selective drug sensitivity score (ALL-PO)
Cn1c(=O)n(-c2ccc(C(C)(C)C#N)cc2)c2c3cc(-c4cnc5ccccc5c4)ccc3ncc21 [Dactolisib] (top concentration 1000 nM)	-2.54	5.76	14.8	-3.94	5.66	3.46	3.26	10.3	11.1	4.46	12.9	5.06	10.3	0.86	10.4	7.76	5.36	21.3	16.1	4.56
CC(C)C[C@H](NC(=O)[C@H](CCc1ccccc1)NC(=O)CN1CCOCC1)C(=O)N[C@@H](Cc1ccccc1)C(=O)N[C@@H](CC(C)C)C(=O)[C@@]1(C)CO1 [Carfilzomib] (top concentration 1000 nM)	-8.24	0.86	3.46	0.26	5.36	5.06	2.86	4.56	3.86	0.16	3.16	2.56	1.76	-3.64	8.56	-2.74	2.86	0.86	1.36	4.76
Nc1nc2[nH]cnc2c(=S)[nH]1 [Thioguanine] (top concentration 10000 nM)	5.54	14.2	11.6	2.44	13.1	4.04	-1.36	19.2	14.7	-3.46	10.8	13.1	11.2	7.74	13	14.9	6.34	14.3	15.2	11.2
C=CC(=O)Nc1cc2c(Nc3ccc(F)c(Cl)c3)ncnc2cc1OCCCN1CCOCC1 [Canertinib] (top concentration 10000 nM)	-7.24	-2.14	2.26	1.56	1.36	5.96	12.6	3.16	6.36	4.96	0.26	2.26	3.76	-0.14	2.56	-1.54	4.86	1.26	1.86	2.86
CC(C)C[C@H](NC(=O)[C@H](Cc1ccccc1)NC(=O)c1cnccn1)B(O)O [Bortezomib] (top concentration 1000 nM)	-9.68	2.22	4.72	2.42	6.02	5.92	2.72	8.42	5.82	2.32	4.92	2.32	3.22	2.32	12.9	2.72	1.32	3.42	2.02	4.82
O=C(/C=C\n1cnc(-c2cc(C(F)(F)F)cc(C(F)(F)F)c2)n1)NNc1ccccn1 [Verdinexor] (top concentration 1000 nM)	-6.96	9.74	4.34	3.64	11.6	8.54	20.5	11.2	9.84	0.14	4.44	5.44	3.74	-0.36	0.34	8.34	9.34	9.04	11.1	7.54
CNC(=O)c1cc(Oc2ccc(NC(=O)Nc3ccc(Cl)c(C(F)(F)F)c3)c(F)c2)ccn1 [Regorafenib] (top concentration 10000 nM)	4.44	3.24	4.04	5.94	4.44	6.74	-1.56	9.14	6.14	2.74	4.44	7.64	2.04	1.54	10	3.44	1.24	10.9	3.34	7.14
COC(=O)C[C@](O)(CCCC(C)(C)O)C(=O)O[C@@H]1C(OC)=C[C@]23CCCN2CCc2cc4c(cc2[C@H]13)OCO4 [Omacetaxine] (top concentration 10000 nM)	-14.8	3.32	3.12	13	-2.78	4.62	15.6	7.82	4.92	-2.08	-1.08	-1.88	1.12	-8.18	4.22	3.92	7.92	7.22	6.32	-3.38
O=C(NOC[C@H](O)CO)c1ccc(F)c(F)c1Nc1ccc(I)cc1F (top concentration 1000 nM)	-2.46	-1.96	-4.16	-0.26	8.64	6.94	14.9	13.5	0.44	2.94	-4.16	0.94	4.44	2.74	-3.16	-3.86	1.84	-1.96	-1.36	4.34
CC(=O)OC[C@H]1O[C@@H]([S-])[C@H](OC(C)=O)[C@@H](OC(C)=O)[C@@H]1OC(C)=O.CCP(CC)CC.[Au+] [Auranofin] (top concentration 2500 nM)	-1.06	-0.46	4.84	0.14	1.94	6.34	4.04	12.6	-1.86	3.84	6.04	0.74	3.94	-0.56	1.34	-2.36	7.84	3.84	1.74	0.34
C[C@@H]1CN(CC(=O)Nc2ccc3c(c2)Cc2cccc(-c4cc(=O)cc(N5CCOCC5)o4)c2S3)C[C@H](C)O1 (top concentration 25000 nM)	-2.18	-0.08	3.42	-0.68	4.02	3.02	-2.18	-0.58	0.42	-2.18	6.12	2.62	1.22	-2.18	2.22	1.82	1.92	8.12	0.32	2.02
Cc1ccc(Nc2nccc(N(C)c3ccc4c(C)n(C)nc4c3)n2)cc1S(N)(=O)=O [Pazopanib] (top concentration 10000 nM)	-1.26	-1.06	5.14	-0.76	0.04	-1.26	-1.26	-0.96	4.34	4.54	4.14	2.84	3.64	-1.26	4.54	2.44	-1.26	10.5	1.94	-1.06
CCS(=O)(=O)c1cccc(-c2cc(C(=O)NC3CCN(C)CC3)c(C)c3[nH]c4ncc(C)cc4c23)c1 [TAK-901] (top concentration 1000 nM)	-4.74	10.6	12.8	3.66	0.66	6.16	6.66	11	13.6	7.16	11.1	12.4	10.8	0.16	9.36	6.56	8.96	10.7	12.6	7.76
Nc1cc(F)ccc1NC(=O)/C=C/c1cnn(C/C=C/c2ccccc2)c1 [RGFP966] (top concentration 10000 nM)	-0.26	8.94	14	2.34	6.84	4.84	12.3	18	15.9	8.54	17.1	10.2	13.5	6.24	18.7	10.5	6.84	14.8	18.2	3.64
Cc1cccc(CC(=O)N2CCc3c2ccc(-c2cn(C)c4ncnc(N)c24)c3F)n1 (top concentration 2500 nM)	2.52	3.22	3.52	5.42	-0.68	-0.28	-0.68	7.22	2.82	-0.68	9.62	7.02	2.92	-0.68	0.32	5.22	-0.68	7.02	5.62	0.22
O=C(CCCCCCC(=O)Nc1ccccc1)NO [Vorinostat] (top concentration 10000 nM)	-2.6	5.8	10	1	2.2	7.7	14.1	11.9	4.8	-0.1	4.5	9.7	11.6	1.5	11.3	8.2	10.2	16.5	15.5	10.1
COc1ccc(-c2ccc3ncc4c(c3c2)n(-c2ccc(N3CCNCC3)c(C(F)(F)F)c2)c(=O)n4C)cn1 [NVP-BGT226] (top concentration 1000 nM)	-3.58	5.42	12.2	-0.48	2.12	6.42	0.62	10.2	5.82	-5.58	8.22	3.42	8.42	-0.18	6.82	4.42	5.92	20.1	12.2	6.72
C[C@]12C=CC(=O)C=C1CC[C@@H]1[C@@H]2[C@@H](O)C[C@@]2(C)[C@H]1CC[C@]2(O)C(=O)CO [Prednisolone] (top concentration 10000 nM)	-2.8	1.1	15	-3	29.4	20.6	26.7	28.1	9.3	4.8	-3	-3	2	-3	2.9	-1.3	16.9	26.8	3.5	28.9
